Measured values from patent US9988343B2, “Inhibitors of histone deacetylase” (Dana-Farber Cancer Institute, Inc., priority 2013, dated 2018).

What was measured:
[1] = target: PHF8 (Homo sapiens, UniProt Q9UPP1); details: King et al. 2010; cited from earlier work
[2] = test system: JMJD2A in HeLa cells; details: read-out: IC50 H3K9me3 demethylation by JMJD2A, King et al. 2010; cited from earlier work
[3] = test system: JMJ family demethylases, including several variants of JMJD2 and JMJD1; details: Kruidenier et al. 2012; cited from earlier work
[4] = test system: HDAC3 knockdown cells; test: MTT cell growth in HDAC3 knockdown cells; format: cell-based, human
Description: HDAC1, HDAC2 and HDAC3 pLKO.1 shRNA vectors were obtained from the RNA Interference Screening Facility at the Dana-Farber Cancer institute. Recombinant lentivirus was produced and infection of MM cells was performed using standard methods in the art.
In addition, the effect of bortezomib on HDAC3 knockdown cells was examined. RPMI8226 (FIG. 7B, left panel) and MM.1S (FIG. 7B, right panel) cells were infected with Luc or HDAC3 (#1 and #2) shRNAs. Cells were then cultured with or without bortezomib (3 nM) for 48 hours and cell growth was assessed by MTT assay. Data represent mean±SD from triplicate cultures.
Also, experiments were conducted to determine whether dual inhibition of both HDAC3 and HDAC6 was more cytotoxic than either HDAC3 or HDAC6 when combined with bortezomib. Cell growth was assayed by MTT assay in the presence of Luc (control), sh1 or sh2 shRNAs against HDAC3 alone, or in combination with a selective HDAC6 inhibitor—tubastatin-A, or in combination with both tubastatin-A and bortezomib.

[5] = test system: MM cell lines; test: Cell growth inhibition assay (MTT) in MM cell lines; format: cell-based, human; details: MM cell lines, 48 hours, MTT (FIG. 1A)
Description: To measure proliferation of MM cells, the rate of DNA synthesis was measured by ^3[H]-thymidine (Perkin-Elmer) uptake.
The growth inhibitory effect of Merck60 (HDACL, 2 inhibitor previously reported as compound #60 by Method et al. Bioorg. Med. Chem. Lett. 2008. 18(3):973-8) versus MS275 (HDAC1, 2, 3 inhibitor) was examined in MM cell lines using MTT assay. MM cells were cultured with Merck60 (left panel) or MS275 (right panel) for 48 hours. Cell growth was assessed by MTT assay. All experiments were performed 3 times in quadruplicate. Data represent mean±SD.
Cell growth was assessed by MTT assay. All experiments were performed 3 times in quadruplicate. Data represent mean±SD.

[6] = test system: RPMI8226 cells; test: Combination with bortezomib, MTT cytotoxicity, combination index; format: cell-based, human; details: for CI (combination index): RPMI8226, MTT, 24 h
Description: The combined effect of drugs was analyzed by isobologram analysis using the Compusyn software program (ComboSyn, Inc.); a combination index (CI)<1 is indicative of a synergistic effect.
All experiments were performed 3 times in quadruplicate. Data represent mean±SD (FIG. 7D).

[7] = test system: RPMI8226 cells; test: Immunoblot of histone acetylation in RPMI8226 cells; format: cell-based, human; details: RPMI8226, 12 h, compared with Merck60 (FIG. 1C)
[8] = test system: pSTAT3 (Tyr705); test: Immunoblot of STAT3 phosphorylation in MM cells; format: cell-based, human; details: RPMI8226 infected with shRNAs, bortezomib 5 nM, 6 hours (FIG. 7C)
Description: MM cells were harvested and lysed using sodium dodecyl sulfate-polyacrylamide gel electrophoresis (SDS-PAGE) sample buffer containing 60 mM Tris-HCl, pH 6.8, 2% SDS, 10% glycerol, 0.005% bromophenol blue, 5 mM ethylenediaminetetraacetic acid, 5 mM NaF, 2 mM […], 1 mM phenylmethylsulfonyl fluoride (PMSF), 5 μg/mL leupeptin, and 5 μg/mL aprotinin; and then heated at 100° C. for 5 min. After the determination of protein concentration using DC protein assay (Bio-Rad, Hercules, Calif.), β-mercaptoethanol (β-ME) was added to the whole-cell lysates to a 2% final β-ME concentration. The whole-cell lysates were subjected to SDS-PAGE, transferred to nitrocellulose membranes (Bio-Rad, Hercules, Calif.) or polyvinylidene fluoride membranes (Millipore, Billerica, Mass.), and immunoblotted with anti-histone H3, -HDAC1, -HDAC2, -HDAC3, -Acetyl-histone H2A (Lysine 5) (Ac-H2AK5), -Acetyl-histone H2B (lysine 5) (Ac-H2 BK5), -Acetyl-histone H3 (lysine 9) (Ac-H3K9), -Acetyl-histone H4 (lysine 8) (Ac-H4K8), -glyceraldehyde-3-phosphate dehydrogenase (GAPDH), -poly (ADP-ribose) polymerase (PARP), -caspase-3, -caspase-8, -caspase-9, -Signal transducers and activators of transcription 3 (STAT3), -phospho-STAT3 (pSTAT3) (tyrosine 705), -pSTAT3 (serine 727), -p21, -Janus kinase 2 (JAK2), -acetylated-Lysine (Ac-K), and anti-phosphorylated-tyrosine antibodies (Abs; Cell Signaling Technology, Beverly, Mass.).
MM.1S, U266, and INA6 cells were cultured with DMSO control or LBH589 (50 and 100 nM) for 8 h.
MM.1S cells pretreated with or without 50 nM LBH589 for 8 hours were then treated with IL-6 (10 ng/mL) or BMSC culture supernatants (#1 and #2) for 15 minutes. Whole cell lysates were subjected to immunoblotting with anti-pSTAT3 (Tyr705) and STAT3 Abs.
In addition, INA-6 cells were cultured with DMSO control, LBH589 (50 nM), TSA (1 μM) or SAHA (2 μM) for 8 hours. Whole cell lysates were subjected to immunoblotting with anti-pSTAT3 (Tyr705), STAT3, and GAPDH Abs.
Whole cell lysates were subjected to immunoblotting with anti-pSTAT3 (Tyr705), -STAT3, -pERK1/2 (Thr202/204), and -ERK1/2 Abs (FIG. 6G).
See, e.g., Hideshima et al. Blood. 2006, 107:4053-4062. Since bortezomib upregulates activated STAT3 in head and neck squamous cell carcinoma (see, e.g., Li et al. Mol Cancer Ther 2009. 8:2211-2220), experiments were conducted to test whether bortezomib enhances p-STAT3 in MM cells. RPMI8226 cells were infected with Luc, HDAC1 (sh1), HDAC2 (sh1) or HDAC3 (sh1) shRNAs and then treated with or without bortezomib (5 nM) for 6 hours. Whole cell lysates were subjected to immunoblotting with anti-STAT3, -pSTAT3 (Tyr705), -pERK1/2 (Thr202/204) and -ERK1/2 Abs.

Chain of PHF8 (Q9UPP1 whole entry, species assumed): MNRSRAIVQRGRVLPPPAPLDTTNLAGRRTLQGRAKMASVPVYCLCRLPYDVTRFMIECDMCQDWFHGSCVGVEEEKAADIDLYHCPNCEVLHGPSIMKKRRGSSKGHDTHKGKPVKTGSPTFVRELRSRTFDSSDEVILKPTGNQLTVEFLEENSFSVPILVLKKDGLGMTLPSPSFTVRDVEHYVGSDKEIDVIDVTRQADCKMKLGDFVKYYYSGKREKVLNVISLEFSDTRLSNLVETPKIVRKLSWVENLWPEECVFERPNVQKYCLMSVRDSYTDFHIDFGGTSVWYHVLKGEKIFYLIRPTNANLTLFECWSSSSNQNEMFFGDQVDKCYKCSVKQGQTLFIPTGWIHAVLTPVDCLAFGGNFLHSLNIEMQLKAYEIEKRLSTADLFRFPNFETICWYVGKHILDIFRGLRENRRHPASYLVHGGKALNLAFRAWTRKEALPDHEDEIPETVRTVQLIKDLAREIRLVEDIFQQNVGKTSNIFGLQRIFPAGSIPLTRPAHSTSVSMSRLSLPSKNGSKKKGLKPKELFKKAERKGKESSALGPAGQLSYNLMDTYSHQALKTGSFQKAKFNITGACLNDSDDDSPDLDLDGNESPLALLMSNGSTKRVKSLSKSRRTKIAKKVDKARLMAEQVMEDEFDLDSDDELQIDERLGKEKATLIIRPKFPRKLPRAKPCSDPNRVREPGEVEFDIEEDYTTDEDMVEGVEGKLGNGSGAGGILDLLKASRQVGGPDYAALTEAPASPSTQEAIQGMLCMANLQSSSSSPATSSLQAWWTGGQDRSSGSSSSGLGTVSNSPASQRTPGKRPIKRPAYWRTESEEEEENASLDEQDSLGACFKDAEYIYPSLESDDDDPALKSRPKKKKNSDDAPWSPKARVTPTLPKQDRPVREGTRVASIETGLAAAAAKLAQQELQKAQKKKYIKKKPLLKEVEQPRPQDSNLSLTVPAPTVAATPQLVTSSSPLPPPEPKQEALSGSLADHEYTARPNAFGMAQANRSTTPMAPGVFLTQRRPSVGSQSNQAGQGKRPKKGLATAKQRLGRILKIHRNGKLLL

O=C(O)c1ccc(O)c2ncccc12 [IOX1, 8-hydroxy-5-quinolinecarboxylic acid]
IC50 [1]: 13.3 µM | IC50 [2]: 87 µM

O=C([O-])CCNc1cc(N2CCc3ccccc3CC2)nc(-c2ccccn2)n1.[Na+] [GSK J1, 3-((6-(4,5-dihydro-1H-benzo[d]azepin-3(2H)-yl)-2-(pyridin-2-yl)pyrimidin-4-yl)amino)propanoate, monosodium salt]
activity against a panel of additional JMJ family demethylases [3]: inactive

CN1CCc2c(c3ccccc3n2Cc2ccc(C(=O)NO)cc2)C1 [tubastatin-A]
cytotoxicity of combined HDAC3 knockdown with bortezomib ([4]; MTT, tubastatin-A added (FIG. 8B)): further enhanced cytotoxicity

Nc1ccccc1NC(=O)c1ccc(CNC(=O)OCc2cccnc2)cc1 [MS275]
MM cell growth inhibition [5]: significant MM cell growth inhibition | CI (combination index) ([6]; HDAC inhibitor 1 μM + bortezomib 4 nM): 0.81 | CI (combination index) ([6]; HDAC inhibitor 2 μM + bortezomib 2 nM): 0.56 | CI (combination index) ([6]; HDAC inhibitor 2 μM + bortezomib 3 nM): 0.63 | CI (combination index) ([6]; HDAC inhibitor 2 μM + bortezomib 4 nM): 0.76 | CI (combination index) ([6]; HDAC inhibitor 3 μM + bortezomib 2 nM): 0.53 | CI (combination index) ([6]; HDAC inhibitor 3 μM + bortezomib 3 nM): 0.62 | CI (combination index) ([6]; HDAC inhibitor 3 μM + bortezomib 4 nM): 0.77 | cytotoxicity in combination with bortezomib ([6]; RPMI8226, bortezomib 0-4 nM + 1-3 μM, 24 hours (FIG. 7A)): synergistic cytotoxicity | acetylation of histones (H2A, H2B, H3 and H4) [7]: more potently induced acetylation of histones

CC(C)CC(NC(=O)[C@H](Cc1ccccc1)NC(=O)c1cnccn1)B(O)O (stereo in doubt) [bortezomib, [(1R)-3-methyl-1-[[(2S)-1-oxo-3-phenyl-2-[(pyrazinylcarbonyl)amino]propyl]amino]butyl]boronic acid]
p-STAT3 [8]: upregulated p-STAT3 | cytotoxicity in HDAC3 knockdown cells ([4]; RPMI8226 and MM.1S with HDAC3 shRNAs, bortezomib 3 nM, 48 hours, MTT (FIG. 7B)): significantly enhances cytotoxicity
